Results on three compounds are retold here after patent publication US20060246095A1, “Multiepitope polypeptides for cancer immunotherapy” (HADASIT MEDICAL RESEARCH SERVICES & DEVELOPMENT LTD., priority 2003, published 2006).

One assay concerns specific T cell clones. The assay is described as follows: Recognition assay for peptide presentation by DC, statements on T cell clones overall. In kind it is cell-based, human. The following applies: MEP-transfected DC, Lactacystin 25 μM and 50 μM. On the procedure: T cell clones were co-incubated with DC in flat 96-well plate for 24 hours. DC were plated immediately after their transfection or pulsing in 6 separated plates, in the presence of GM CSF and IL-4. 1×10^5 T cells were added to 1×10^5 pulsed or transfected DC. In the longitudinal study, T cell clones were added to the transfected/pulsed DC at the following time points: T0=immediately, +12=after 12 hours, 24, 36, 48 and 72 hours. Supernatants were collected after overnight incubation. Interferon gamma release assay was performed to evaluate T cell stimulation using the ELISA method, results are presented in pg/ml.
Lactacystin was added to DC at concentrations of 25 μM and 50 μM, 4 hours post transfection. DC were incubated with lactacystin for 70 minutes and then washed twice.
Responding T cells were added after washing the lactacystin and co-incubated. Supernatents were collected after 20 hours.
Efficiency of epitope presentation and stimulation of specific T cell clone proliferation were evaluated by comparing the specific T cell clones response to the DC transfected with the multiepitope, to DC that were pulsed with specific peptides or DC transfected with full length melanoma associated antigens (gp100 and MART-1), using the recognition assay. […]

Assay [1] has as its system peripheral blood lymphocytes of breast carcinoma patients. The following applies: cited from earlier work.
For the next assay, the system named is mice. The note with it: cited from earlier work.

`CC(=O)N[C@@H](CSC(=O)[C@]1([C@@H](O)C(C)C)NC(=O)[C@H](C)[C@@H]1O)C(=O)O` [Lactacystin]: in the assay with specific T cell clones, the “effect of proteasomal inhibition on epitope expression” value is recorded as “decreased the epitope expression of MEP-Mel to background level”.

In the case of “BA46-6: peptide BA46-6 (NLFETPVEA) of Lactadherin, SEQ ID NO: 27 (listed as Homo sapiens)”, the “specific CTL activity” value (in assay [1]; in the assay with mice) was “elicited specific CTL activity” in each case. “BA46-7: peptide BA46-7 (GLQHWVPEL) of Lactadherin, SEQ ID NO: 28 (listed as Homo sapiens)”: the “specific CTL activity” value (in assay [1]; in the assay on mice) was “elicited specific CTL activity” in each case.
